Like-named read-outs stand apart in the source and are kept apart here.
What was measured:
CrAS3MT [1] = biological target: T1, CrAS3MT (Chlamydomonas reinhardtii, UniProt K0BVM7); test: biochemical; type: biochemical
T1 sequence (K0BVM7 1-379): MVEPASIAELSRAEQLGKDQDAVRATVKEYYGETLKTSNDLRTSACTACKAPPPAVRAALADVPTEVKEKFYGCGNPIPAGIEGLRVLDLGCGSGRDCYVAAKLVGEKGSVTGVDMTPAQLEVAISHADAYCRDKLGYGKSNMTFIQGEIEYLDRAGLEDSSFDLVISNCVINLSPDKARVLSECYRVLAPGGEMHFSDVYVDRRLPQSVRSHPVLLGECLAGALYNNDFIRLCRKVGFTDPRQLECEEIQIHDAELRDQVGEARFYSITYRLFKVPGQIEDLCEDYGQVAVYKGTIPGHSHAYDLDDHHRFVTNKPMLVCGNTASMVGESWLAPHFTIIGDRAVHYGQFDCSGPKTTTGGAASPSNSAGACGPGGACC

CrAS3MT [2] = biological target: T1, CrAS3MT; type: biochemical
Y72W CrAS3MT = type: binding, Chlamydomonas reinhardtii
SAM methyltransferases = details: read-out: IC50 for SAM methyltransferases; cited from earlier work

Compound: arsenite [As(III)]
- As(III) concentration at which activity could be detected (CrAS3MT [1]): 10^−8 molar

Compound: CCN1C(=O)C=CC1=O [NEM, N-ethylmaleimide]
- IC50 (CrAS3MT [1]): 140 µM
- effect on arsenic methylation (CrAS3MT [2]): completely inhibited

Compound: Nc1ncnc2c1ncn2[C@@H]1O[C@H](CC(N)CCC(N)C(=O)O)[C@@H](O)[C@H]1O (stereo partly shown) [sinefungin, 5′-deoxy-5′-(1,4-diamino-4-carboxybutyl)adenosine]
- effect on As(III)-induced fluorescence quenching (Y72W CrAS3MT): no effect
- quenching of Y72W fluorescence by sinefungin (Y72W CrAS3MT): did not quench
- IC50 (CrAS3MT [1]): 0.5 µM
- effect on formation of DMAs(V) (CrAS3MT [2]): significantly inhibited
- IC50 (SAM methyltransferases): 0.1 to 20 µM

Compound: CSS(C)(=O)=O [MMTS, methylmethanethiosulfonate]
- effect on quenching of Y72W by As(III) (Y72W CrAS3MT): significant reduction in quenching
- effect on the fluorescence of Y72W (quenching) (Y72W CrAS3MT): quenched
- protein fluorescence quenching at 20 μM MMTS (Y72W CrAS3MT): not substantially quenched
- IC50 (CrAS3MT [1]; read-out: IC50 for inhibition of SAH production (half-maximal inhibition)): 43 µM

Compound: [Sb+3] [Sb(III)]
- effect on the fluorescence of Y72W (quenching) (Y72W CrAS3MT): most quenching at the lowest concentration

Source: paper PMC4581724 (Analytical biochemistry, 2015)
